Test results: patent US10377783B2, “Methods and compounds for enhancing contrast in magnetic resonance imaging (MRI)” (priority 2015, dated 2019)
Like-named read-outs stand apart in the source and are kept apart here. Values belong to the compound of their own block, whether it stands above or below them.

Columns and labels:
[1] = test system: primary rat renal proximal tubule epithelial cells (RPTECs); test: In vitro toxicity, MTT assay; assay type: cell-based; conditions: for cytotoxicity: 10 h time point, compared with 4 h; for IC50: rat RPTECs, MTT, read-out: Inhibitory concentration IC50
Description: Gadodiamide (Selleckchem, Lot #02) was used as the reference compound. It is one of the 8 Gd(III)-based MRI agents approved for use in Canada (trade name: Omniscan™).
The test articles and reference compound were weighed and dissolved in the incubation medium to give the highest test concentration of 30 mM. The solution was filter sterilized and diluted to the remaining test concentrations of 10 mM, 3.3 mM, 1.1 mM, 0.36 mM, 0.12 mM and 0.04 mM.
Cryopreserved primary rat renal proximal tubule epithelial cells (RPTECs) (ScienCell Research Laboratories, Carlsbad, Calif.) were used for the study. The rat RPTECs were thawed completely at 37° C., and transferred to epithelial cell medium (ScienCell Research Laboratories, Carlsbad, Calif.) followed by plating in poly-L-lysine coated 96-well plates. The RPTECs were allowed to recover and grow in a cell culture incubator (37° C., humidified atmosphere of 5% carbon dioxide and 95% air) for 3 additional days with a medium change every alternate day.
Following 3 days of plating, the RPTECs were washed once with serum free epithelial cell medium (ScienCell Research Laboratories, Carlsbad, Calif.) followed by treatment with the test, reference or control articles for 2, 4, 10 or 24 h. All treatments were performed in triplicate.
Cellular viability and metabolic activity were assessed by using the 3-(4,5-dimethylthiazol-2-yl)-2,5-diphenyl tetrazolium bromide (MTT) uptake assay. A 10× stock of the MTT dye was prepared in phosphate buffered saline (PBS). An aliquot of dye was added 2 hrs before the intended time point to achieve a final 1× concentration, after which incubation (37° C., humidified atmosphere of 5% carbon dioxide and 95% air) continued until the desired time point. For the 2 hr time point, the aliquot of dye was added immediately after the test articles. Following incubation, all media was aspirated from the wells and the plates were allowed to dry. The resulting formazan crystals were dissolved in DMSO using an orbital shaker, and the absorbance at 570 nm was measured using a Victor ^3V multilabel plate reader (reference wavelength=650 nm).
The inhibitory concentration (IC50, the concentration resulting in 50% toxicity) was determined by plotting log concentration vs. relative viability, followed by non-linear regression of the curve using Graph Pad Prism 5.0.
An in vitro toxicity study was performed in order to evaluate the cytotoxic potential of several of the agents in primary rat renal proximal tubule epithelial cells (RPTECs), prior to performing in vivo studies. The Mn^II and Gd^III complexes of L1, L2 and L6 (complexes 1, 2, 5, and 7-9) were evaluated at seven concentrations (30 mM, 10 mM, 3.3 mM, 1.1 mM, 0.36 mM, 0.12 mM and 0.04 mM) after 2, 4, 10 and 24 hours of treatment in rat RPTECs. The MTT assay was used as an indicator of viability. The nephrotoxic potential of the test articles was compared to the toxicity observed in the presence of the approved agent Gadodiamide. The results are summarized in Table 4, where the inhibitory concentration (IC50, the concentration resulting in 50% toxicity) was determined by plotting log concentration vs. relative viability.

[2] = Relaxivity measurements (T1 and T2 relaxation times, Bruker minispec mq60/mq20); assay type: physicochemical; conditions: aqueous solution, 37° C.
Description: T1 and T2 relaxation times were measured at the STTARR Innovation Centre in Toronto, Canada using a Bruker minispec mq60, and at the Bruker Showroom in Milton, Canada using a Bruker minispec mq20. Measurements were carried out on a series of 6 aqueous dilutions between 0-5 mM.
The T1 and T2 relaxation times of the 8 soluble, pure complexes were measured in aqueous solution at 37° C., at both 20 and 60 MHz.

[3] = test system: male rat (Sprague Dawley Crl:SD); test: In vivo MRI imaging of 2 and 6, T1-weighted scans; conditions: for T1-weighted MRI signal intensity, bladder: baseline (−10 min) 5085; for T1-weighted MRI signal intensity, lean muscle: baseline (−10 min) 5640; for T1-weighted MRI signal intensity, liver: baseline (−10 min) 7276; for T1-weighted MRI signal intensity, renal medulla: baseline (−10 min) 7725; for T1-weighted MRI signal intensity, renal cortex: baseline (−10 min) 8005; for T1-weighted MRI signal intensity, fat: baseline (−10 min) 14509
Description: Compound 1 (aq., 12.5 mM) was injected intravenously into 2 male rats (Sprague Dawley Crl:SD, 312-338 g) at a dosage of 0.02 mmol/kg following anaesthesia with 5% isoflurane. Compound 2 (aq., 6.25 mM) was injected intravenously into 1 male rat (Sprague Dawley Crl:SD, 349 g) at a dosage of 0.01 mmol/kg following anaesthesia with 5% isoflurane. Compound 6 (aq., 6.25 mM) was injected intravenously into 1 male rat (Sprague Dawley Crl:SD, 341 g) at a dosage of 0.01 mmol/kg following anaesthesia with 5% isoflurane. Anesthesia was maintained at 2-2.5% isoflurane through a nose cone for the duration of the scans. Fast-spin-echo images were collected for 45 mins. immediately post-injection. For compound 1, the DT1-weighted RARE (Rapid Acquisition Relaxation Enhancement) scans were acquired with an echo time of 10 ms, and a repetition time=respiratory cycle duration (˜1100 ms). Both T1- and T2-weighted scans were collected on compounds 2 and 6.
The in vivo contrast potential of compounds 1, 2 and 6 were studied via the collection of fast-spin-echo images for 30-45 minutes immediately following injection of an aqueous solution of each complex. The dosage chosen for 1 was 0.02 mmol/kg (c=[…]) while the dosage chosen for 2 and 6 was 0.01 mmol/kg (c=6.25 mM). Predominantly T1-weighted scans with some T2-weighting were performed on two rats injected with 1.
Both T1- and T2-weighted scans were performed on two rats injected with 2 and its dimeric analogue 6.

[4] = 1 min after injection of 2, 0.01 mmol/kg iv
[5] = 15 min after injection of 2, 0.01 mmol/kg iv
[6] = 30 min after injection of 2, 0.01 mmol/kg iv
[7] = 45 min after injection of 2, 0.01 mmol/kg iv
[8] = injection of 2, 0.01 mmol/kg iv, first 45 min

Structure (SMILES): CC1=NCCNCCNCCN=C(C)c2cccc1n2.O.O.[Cl-].[Cl-].[Mn+2] [Compound 1, [MnL1Cl2].2H2O]
- nephrotoxicity ([1]; 2 and 4 h of treatment, 0.04-30 mM): did not show significant nephrotoxicity
- cytotoxicity [1]: did not display significant cytotoxicity
- nephrotoxic effects ([1]; 24 h of treatment): exhibiting the least nephrotoxic effects
- IC50 ([1]; 24 hr treatment): 5.47 mM
- r1 relaxivity ([2]; 20 MHz): 3.78 s⁻¹ mM⁻¹
- r1 relaxivity ([2]; 60 MHz): 2.76 s⁻¹ mM⁻¹

- excretion (summary) ([3]; 0.01 mmol/kg iv): rapid excretion
Structure (SMILES): CC1=NCCOCCOCCN=C(C)c2cccc1n2.O.O.[Cl-].[Cl-].[Mn+2] [Compound 2, [MnL2Cl2].2H2O]
- IC50 ([1]; 2 hr treatment): 3.88 mM
- IC50 ([1]; 4 hr treatment): 2.56 mM
- IC50 ([1]; 10 hr treatment): 14.7 mM
- cytotoxicity [1]: exhibited a slight reduction in toxicity
- IC50 ([1]; 24 hr treatment): 0.68 mM
- r1 relaxivity ([2]; 20 MHz): 3.58 s⁻¹ mM⁻¹
- r1 relaxivity ([2]; 60 MHz): 2.78 s⁻¹ mM⁻¹
- T1-weighted MRI signal intensity, bladder [3, 4]: 5155 arbitrary units of voxel intensity
- T1-weighted MRI signal intensity, lean muscle [3, 4]: 5841 arbitrary units of voxel intensity
- T1-weighted MRI signal intensity, liver [3, 4]: 7568 arbitrary units of voxel intensity
- T1-weighted MRI signal intensity, renal medulla [3, 4]: 9169 arbitrary units of voxel intensity
- T1-weighted MRI signal intensity, renal cortex [3, 4]: 9368 arbitrary units of voxel intensity
- T1-weighted MRI signal intensity, fat [3, 4]: 15671 arbitrary units of voxel intensity
- T1-weighted MRI signal intensity, bladder [3, 5]: 16182 arbitrary units of voxel intensity
- T1-weighted MRI signal intensity, lean muscle [3, 5]: 5696 arbitrary units of voxel intensity
- T1-weighted MRI signal intensity, liver [3, 5]: 7385 arbitrary units of voxel intensity
- T1-weighted MRI signal intensity, renal medulla [3, 5]: 8472 arbitrary units of voxel intensity
- T1-weighted MRI signal intensity, renal cortex [3, 5]: 10144 arbitrary units of voxel intensity
- T1-weighted MRI signal intensity, fat [3, 5]: 15845 arbitrary units of voxel intensity
- T1-weighted MRI signal intensity, bladder [3, 6]: 11996 arbitrary units of voxel intensity
- T1-weighted MRI signal intensity, lean muscle [3, 6]: 5569 arbitrary units of voxel intensity
- T1-weighted MRI signal intensity, liver [3, 6]: 7812 arbitrary units of voxel intensity
- T1-weighted MRI signal intensity, renal medulla [3, 6]: 7969 arbitrary units of voxel intensity
- T1-weighted MRI signal intensity, renal cortex [3, 6]: 10702 arbitrary units of voxel intensity
- T1-weighted MRI signal intensity, fat [3, 6]: 15745 arbitrary units of voxel intensity
- T1-weighted MRI signal intensity, bladder [3, 7]: 13104 arbitrary units of voxel intensity
- T1-weighted MRI signal intensity, lean muscle [3, 7]: 5574 arbitrary units of voxel intensity
- T1-weighted MRI signal intensity, liver [3, 7]: 7683 arbitrary units of voxel intensity
- T1-weighted MRI signal intensity, renal medulla [3, 7]: 8615 arbitrary units of voxel intensity
- T1-weighted MRI signal intensity, renal cortex [3, 7]: 11485 arbitrary units of voxel intensity
- T1-weighted MRI signal intensity, fat [3, 7]: 15860 arbitrary units of voxel intensity
- Max. intensity change, T1-weighted, bladder [3, 8]: 218%
- Max. intensity change, T1-weighted, fat [3, 8]: 9%
- Max. intensity change, T1-weighted, lean muscle [3, 8]: 3%
- Max. intensity change, T1-weighted, liver [3, 8]: 7%
- Max. intensity change, T1-weighted, renal cortex [3, 8]: 43%
- Max. intensity change, T1-weighted, renal medulla [3, 8]: 19%
- effect on T1-weighted signal intensity ([3]; renal cortex, liver and lean muscle, 0.01 mmol/kg iv): causes an enhancement in the renal cortex and has negligible effect on liver and lean muscle tissue
